# pKi: −log10 of the molar value. Several values for one entry are separate records, joined by “and”; a condition that tells them apart may be missing. Equal values may be shown once.
# Target: Carboxylic ester hydrolase (Equus caballus, UniProt Q9N1N9)
# Assay: Inhibition Assay
# Settings: 40 °C
# Experimental: Butyrylcholinesterase type IV-S, lyophilized from horse serum (sigma Chemical Co.) was used without further purification. HPLC analyses (Thermo Separation Products, Spectra SYSTEM 2000) were performed on an RP-18 column at 40 C.
# Chain of Carboxylic ester hydrolase (Q9N1N9 whole entry): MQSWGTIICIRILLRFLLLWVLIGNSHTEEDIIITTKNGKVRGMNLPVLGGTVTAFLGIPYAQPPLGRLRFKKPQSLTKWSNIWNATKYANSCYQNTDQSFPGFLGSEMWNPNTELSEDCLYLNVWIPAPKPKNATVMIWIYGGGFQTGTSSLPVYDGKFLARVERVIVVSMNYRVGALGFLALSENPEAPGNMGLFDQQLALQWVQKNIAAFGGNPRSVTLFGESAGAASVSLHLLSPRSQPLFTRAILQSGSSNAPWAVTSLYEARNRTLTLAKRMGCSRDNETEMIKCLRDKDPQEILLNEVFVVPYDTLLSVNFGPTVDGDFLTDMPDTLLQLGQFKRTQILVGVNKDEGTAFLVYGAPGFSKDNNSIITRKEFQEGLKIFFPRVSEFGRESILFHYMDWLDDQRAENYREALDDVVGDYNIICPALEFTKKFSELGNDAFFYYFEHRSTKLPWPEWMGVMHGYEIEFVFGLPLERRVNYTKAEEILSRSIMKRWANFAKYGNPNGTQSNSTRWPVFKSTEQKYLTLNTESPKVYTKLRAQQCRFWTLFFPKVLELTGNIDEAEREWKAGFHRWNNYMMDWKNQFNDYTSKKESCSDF
row,SMILES,pKi
1,"O=C(NC1C[N+]2(Cc3ccccc3)CCC1CC2)c1ccccc1 [(S)-N-Benzyl-3-benzamidoquinuclidinium bromide, 12]",4.59 and 5.43
2,"CCCC(=O)NC1C[N+]2(Cc3ccccc3)CCC1CC2 [(S)-N-Benzyl-3-butanamidoquinuclidinium bromide, 9]",3.80 and 3.62

# From BindingDB's records for doi:10.1016/j.bioorg.2006.01.004 (University of Zagreb, 2006)
